# Results as given in patent US20110028345A1, “METHODS TO CHARACTERIZE CELL REPROGRAMMING AND USES THEREOF” (CORNING INCORPORATED, priority 2009, published 2011).
# Ends that are not written are not given here.
# Legend:
# [1] = tested on: differentiated ReNcell cells (endogenous dopamine receptors); test: Epic RWG biosensor DMR assay on the neuronal cell system differentiated from ReNcell VM; format: cell-based, human; settings: for DMR signal upon stimulation: differentiated ReNcell cells, PD128907 and A68930 16 micromolar, dopamine 128 micromolar (FIG. 7A-C); for receptor to which the DMR signal is attributed: differentiated cells, same doses as FIG. 7A-C
# Description: For cell assay on Epic, undifferentiated cells were typically seeded using ˜3×10^3 cells per well in 50 μl of the corresponding culture medium in the biosensor microplate freshly coated with laminin, and were cultured at 37° C. under air/5% CO2. […] The medium was replaced with fresh ReNcell NSC Maintenance Medium every 2-3 days for 10 days. The confluency for all cells at the time of assays was ˜95% to 100%.
# (§1) For biosensor cellular assays, compound solutions were made by diluting the stored concentrated solutions with the HBSS (1× Hanks balanced salt solution, plus 20 mM Hepes, pH 7.1), and transferred into a 384 well polypropylene compound storage plate to prepare a compound source plate. […] Afterwards, a 2 to 10 min continuous recording was carried out to establish a baseline, and to ensure that the cells reached a steady state.
# [2] = tested on: undifferentiated and differentiated ReN cells; test: DMR marker panel profiling, differentiated versus undifferentiated ReN cells; format: cell-based, human; settings: markers at 10 μM (dopamine and glucagons like peptide 128 μM); FIG. 9-11
# Description: The confluency for all cells at the time of assays was ˜95% to 100%.
# as §1
# [3] = tested on: A549 cell; test: Modulation of marker-induced biosensor (DMR) responses in A549 cell; format: cell-based
# Description: (§2) A “modulation profile” or like terms is the comparison between a secondary profile of the marker in the presence of a molecule and the primary profile of the marker in the absence of any molecule. The comparison can be by, for example, subtracting the primary profile from secondary profile or subtracting the secondary profile from the primary profile or normalizing the secondary profile against the primary profile.
# (§3) A “molecule modulation index” or like terms is an index to display the ability of the molecule to modulate the biosensor output signals of the panels of markers acting on the panel of cells. The modulation index is generated by normalizing a specific biosensor output signal parameter of a response of a cell upon stimulation with a marker in the presence of a molecule against that in the absence of any molecule.
# (§4) Alternatively, different scores can be given for a type of modulation but with different scales. For example, a positive modulation of 10%, 20%, 30%, 40%, 50%, 60%, 100%, 200%, etc, can be given a score of +1, +2, +3, +4, +5, +6, +10, +20, correspondingly. Conversely, for negative modulation, similar but in opposite score can be given. […] Thus, the score of HA1077 modulation index in coordination can be assigned as (0, 0.5, −0.6, 0, −2.3, 0.6, 0, −6.8, 0.4, −3.6, −0.5, −1.6). Once a molecular index is generated, the molecular index can be compared with a library of known modulators to determine the mode(s) of action of the molecule of interest. […] Beside its indicative power of a DMR index for pharmacology of a molecule, a molecule DMR index can also be used to distinguish the cellular background of different types of cells.
# [4] = tested on: quiescent A431 cells; test: Modulation of marker-induced biosensor (DMR) responses in quiescent A431 cells; format: cell-based
# Description: as §2, §3, §4
Molecule,specificity of the marker DMR signal for the differentiation state [2],other results
NC[C@@H]1O[C@H](c2ccccc2)Cc2c1ccc(O)c2O [A68930],–,DMR signal upon stimulation [1]: small but reproducible DMR signal; receptor to which the DMR signal is attributed [1]: triggered a DMR signal specifically to the endogenous D1 receptor
Nc1ncnc2c1ncn2[C@@H]1O[C@H](COP(=O)(O)OP(=O)(O)O)[C@@H](O)[C@H]1O [ADP],non-specific to both the undifferentiated and differentiated ReN cells,–
Nc1ncnc2c1ncn2[C@@H]1O[C@H](COP(=O)(O)OP(=O)(O)OP(=O)(O)O)[C@@H](O)[C@H]1O [ATP],specific to the differentiated ReN cells,–
NCCCC(=O)O [GABA],non-specific to both the undifferentiated and differentiated ReN cells,–
CCCN1CCO[C@@H]2c3cc(O)ccc3OC[C@H]21 [PD128907],–,DMR signal upon stimulation [1]: small but reproducible DMR signal; receptor to which the DMR signal is attributed [1]: activated another endogenous dopamine receptor (possibly D2 receptor)
O=c1ccn([C@@H]2O[C@H](COP(=O)(O)OP(=O)(O)O)[C@@H](O)[C@H]2O)c(=O)[nH]1 [UDP],specific to the differentiated ReN cells,–
O=c1ccn([C@@H]2O[C@H](COP(=O)(O)OP(=O)(O)OP(=O)(O)O)[C@@H](O)[C@H]2O)c(=O)[nH]1 [UTP],specific to the undifferentiated cells,–
Nc1ncnc2c1ncn2[C@@H]1O[C@H](CO)[C@@H](O)[C@H]1O [adenosine],specific to the differentiated ReN cells,–
NCCCNCCCCNCCCN [spermine],specific to the differentiated ReN cells,–
NCCc1ccc(O)cc1 [tyramine],specific to the undifferentiated cells,–
N#CC(C#N)=C(N)/C(C#N)=C/c1cc(O)c(O)c(O)c1 [tyrphostin 51],–,"modulation of the biosensor response induced by PMA ([3]; marker PMA): −6%; modulation of the biosensor response induced by SLIGKV-amide ([3]; marker SLIGKV-amide): 0%; modulation of the biosensor response induced by forskolin ([3]; marker forskolin): −23%; modulation of the histamine early response ([3]; marker histamine, early response): +6%; modulation of the histamine late response ([3]; marker histamine, late response): 0%; modulation of the biosensor response induced by pinacidil ([3]; marker pinacidil): 0%; modulation of the biosensor response induced by poly (I:C) ([3]; marker poly (I:C)): +5%; mode of action concluded from the biosensor index ([4]; EGFR inhibitor (EGF DMR in A431) and PDE4 inhibitor (epinephrine, histamine in A431; forskolin in A549)): displays polypharmacology; modulation of the EGF N-DMR ([4]; quiescent A431 cells, marker EGF, N-DMR): −5%; modulation of the EGF P-DMR ([4]; quiescent A431 cells, marker EGF, P-DMR): −36%; modulation of the biosensor response induced by epinephrine ([4]; quiescent A431 cells, marker epinephrine): −68%; modulation of the biosensor response induced by histamine ([4]; quiescent A431 cells, marker histamine): −16%; modulation of the biosensor response induced by nicotinic acid ([4]; quiescent A431 cells, marker nicotinic acid): +4%"
Neuropeptide Y,specific to the differentiated ReN cells,–
SFLLR-amide,specific to the differentiated ReN cells,–
"alpha-melanocyte-stimulating hormone (SYSMEHFRWGKPV; ends and bridges not checked; UniProt P01189 138-150, looked up) [MCH receptor agonist]",non-specific to both the undifferentiated and differentiated ReN cells,–
"angiotensin II (DRVYIHPF; Angiotensin-2; UniProt P01019 25-32, looked up) [ATII receptor angiotensin II]",specific to the undifferentiated cells,–
apelin,non-specific to both the undifferentiated and differentiated ReN cells,–
"dynorphin A (YGGFLRRIRPKLKWDNQ; Dynorphin A(1-17); UniProt P01213 207-223, looked up) [opioid receptor agonist]",specific to the differentiated ReN cells,–
"endothelin 1 (CSCSSLMDKECVYFCHLDIIW; ends and bridges not checked; cysteine pairing not given here; UniProt P05305 53-73, looked up) [endothelin receptor agonist]",specific to the differentiated ReN cells,–
glucagons like peptide,specific to the undifferentiated cells,–
lysophosphatidic acid,specific to the undifferentiated cells,–
"neuropeptide B-23 (WYKPAAGHSSYSVGRAAGLLSGLR; ends and bridges not checked; UniProt Q8NG41 25-48, looked up) [GPR7 and 8 agonist]",specific to the differentiated ReN cells,–
"orexin A (QPLPDCCRQKTCSCRLYELLHGAGNHAAGILTL; ends and bridges not checked; cysteine pairing not given here; UniProt O43612 34-66, looked up) [orexin receptor agonist]",specific to the differentiated ReN cells,–
platelet growth factor,non-specific to both the undifferentiated and differentiated ReN cells,–
"substance P (RPKPQQFFGLM; ends and bridges not checked; UniProt P20366 58-68, looked up) [NKA receptor agonist]",specific to the undifferentiated cells,–
"vasoactive intestinal peptide (HSDAVFTDNYTRLRKQMAVKKYLNSILN; ends and bridges not checked; UniProt P01282 125-152, looked up) [VIP receptor agonist]",specific to the differentiated ReN cells,–
